Assay results as given in patent US9598407B2, “Antibacterial piperidinyl substituted 3,4-dihydro-1H-[1,8]naphthyridinones” (JANSSEN SCIENCES IRELAND UC, priority 2011, dated 2017).
Converted amounts (≈) assume the structure as drawn.

Assays:
[1] = target: S. aureus ATCC 29213 FabI (Staphylococcus aureus (strain MRSA252), UniProt Q6GI75); test: Staphylococcus aureus FabI enzyme inhibition assay; assay type: biochemical; conditions: 30 minutes at room temperature, pH 6.5
Procedure: D.1 FabI Enzyme Inhibition: Staphylococcus aureus FabI Enzyme Inhibition Assay
FabI enzyme inhibition assays were carried out in half-area, 384-well microtitre plates. Compounds were evaluated in 40-μl assay mixtures containing 100 mM NaADA, pH 6.5 (ADA=N-[2-acetamido]-2iminodiacetic acid), 250 μM crotonoyl-CoA, 625 μM NADH and 50 μg/ml S. aureus ATCC 29213 FabI Inhibitors were typically varied over the range of 50 to 0.39 μM. The reaction mixtures were incubated for 30 minutes at room temperature and the reaction was stopped by adding 200 mM Tris buffer (pH 9.0) to create a pH-shift. The consumption of NADH was monitored by measuring the change in absorbance at […]. By comparing sample readings to those of negative (absence of compound) and positive (absence of enzyme) controls, the percent inhibition of enzymatic activity of the compounds was determined A best-fit curve is fitted by a minimum of squares method. From this an IC50-value (expressed in μg/ml), resulting in 50% inhibition of enzymatic activity, was obtained.

[2] = system: Staphylococcus aureus ATCC 29213; test: Antibacterial susceptibility testing, IC90 determination (STA 361.159); assay type: cell-based; conditions: STA ATCC 29213; 90% inhibitory concentration for bacterial growth
Procedure: D.2 In Vitro Method for Testing Compounds for Antibacterial Activity Against Various Bacterial Strains Preparation of Bacterial Suspensions for Susceptibility Testing
(§1) The following bacteria were used: Staphylococcus aureus ATCC 29213, methicillin-resistant Staphylococcus aureus (MRSA) ATCC 700788 and Escherichia coli ATCC 35218. The bacteria used in this study were grown overnight in flasks containing 100 ml Mueller-Hinton broth (Difco cat. nr. 0757-17) in sterile de-ionized water, with shaking, at 37° C. Stocks were store at −70° C. until use.
(§2) Bacteria were incubated on a tryptic soy agar plate containing 5% sheep blood (Becton Dickinson cat. nr. 254053) for 18-24 hours at 35° C. in aerobic conditions (first passage). For the second passage, fresh Mueller-Hinton broth is inoculated with 5-10 colonies and grown overnight at 35° C. until turbidity (reaching log-phase) in aerobic conditions is reached. The bacterial suspension is then adjusted to 0.5 McFarland density and further diluted 1:100 in Mueller Hinton broth medium. This is used as inoculum.
Antibacterial Susceptibility Testing: IC90 Determination
(§3) MIC assays were performed by the broth microdilution method in a 96-well format (flat-bottom microtitre plates) with a final volume of 0.1 ml Mueller Hinton broth containing two-fold serial dilutions of compounds and inoculated with 5×10^5 CFU/ml of bacteria (standard inoculum size according to CLSI guidelines). Inhibitors are typically varied over the range of 63 to 0.49 μM. The final DMSO concentration in the assay was 1.25% (maximum tolerable DMSO concentration=6%). In the assays where the effect of human serum on the activity of the compounds against S. aureus was tested, human serum was added at a final concentration of 10%. The plates were incubated at 35° C. for 16-20 hours. At the end of incubation the bacterial growth was quantified fluorometrically. For this, resazurin was added to all wells and the plates were re-incubated. The incubation time is dependent on the type of bacteria. A change in color from blue to pink indicated the growth of bacteria. The fluorescence was read in computer-controlled fluorometer (Fluoroskan Ascent FL, Labsystems) at an excitation wavelength 540 nm and an emission wavelength of 590 nm. The % growth inhibition achieved by the compounds was calculated according to standard methods. The IC90 (expressed in μg/ml) was defined as the 90% inhibitory concentration for bacterial growth. A panel of reference compounds were simultaneously tested for QC approval.

[3] = system: S. aureus; test: Antibacterial susceptibility testing, IC90 with 10% human serum (STA + 10% HS 361.169); assay type: cell-based, Staphylococcus aureus; conditions: S. aureus with 10% human serum
Procedure: as §1, §2, §3
The results are depicted in the table D2 below (STA+10% HS).

[4] = system: Human HelaM cells; test: Cytotoxicity MTT assay (TOX HELAM 222.125); assay type: cell-based; conditions: 72 hours
Procedure: Cytotoxicity of the compounds was evaluated using the MTT assay. Human HelaM cells grown in 96-well plates were exposed to serial dilutions of the tested compounds (final volume of 0.2 ml) and incubated for 72 hours at 37° C. and 5% CO2 Inhibitors are typically varied over the range of 25 to 0.8 μM. The final DMSO concentration in the assay is 0.5%. MTT (3-(4,5-Dimethylthiazol-2-yl)-2,5-diphenyltetrazolium bromide, a tetrazole) was added and reduced to purple formazan only in living cells. Solubilization of the formazan crystals was achieved by adding 100 μl 2-propanol. Cell viability was determined by measuring the absorbance of the reduced formazan, giving a purple color, at 540 nm and 690 nm. The absorbance measured at 690 nm was automatically subtracted from the absorbance at 540 nm, to eliminate the effects of non-specific absorption. The percent cytotoxicity achieved by the compounds was calculated according to standard methods. Cytotoxicity is reported as CC50, the concentration that causes a 50% reduction in cell viability.
The results are depicted in the table D2 below (TOX HELAM).

[5] = system: S. aureus ATCC 29213; test: Antimicrobial spectrum, CLSI broth microdilution MIC; assay type: cell-based, Staphylococcus aureus; conditions: reference strain MSSA, MHB
Procedure: (§4) Minimum Inhibitory Concentrations (MICs) were determined in accordance with the Clinical and Laboratory Standards Institute (CLSI) methodology against aerobic bacteria (CLSI M07-A8) (see Clinical and Laboratory Standards Institute. 2009. Methods for dilution antimicrobial susceptibility tests for bacteria that grow aerobically. CLSI document M07-A8, Vol. 29, No. 2.) by the broth microdilution method with cation-adjusted Mueller-Hinton broth (CA-MHB) medium for the majority of organisms, except for Haemophilus influenza, where Haemophilis test medium (HTM) broth was used. Descriptions of the individual organisms can be found in the table. Where possible, ATCC standard strains were tested.
(§5) The inoculum density for the susceptibility testing was standardized to give a final inoculum of approximately 5×10^5 CFU/mL.
(§6) Stock solutions of the compounds were prepared in DMSO at concentrations of 1 mg/mL. Linezolid was prepared in DMSO at a concentration of 2 mg/mL. Stock solutions of all compounds were diluted into CA-MHB to give a range of two-fold dilutions, depending upon the sensitivity of the organism being tested.

[6] = system: S. aureus ATCC 43300; test: as above; assay type: cell-based, Staphylococcus aureus; conditions: reference strain MRSA, MHB
Procedure: as §4, §5, §6

[7] = system: S. aureus NRS119; test: as above; assay type: cell-based, Staphylococcus aureus; conditions: LZD-R, MHB
Procedure: as §4, §5, §6

[8] = system: S. aureus NRS120; test: as above; assay type: cell-based, Staphylococcus aureus; conditions: LZD-R, MHB
Procedure: as §4, §5, §6

[9] = system: S.aureus NRS121; test: as above; assay type: cell-based, Staphylococcus aureus; conditions: LZD-R, MHB
Procedure: as §4, §5, §6

[10] = system: E. coli ATCC 25922; test: as above; assay type: cell-based, Escherichia coli; conditions: reference strain, MHB
Procedure: as §4, §5, §6

[11] = system: E. coli tolC mutant; test: as above; assay type: cell-based, Escherichia coli; conditions: MHB
Procedure: as §4, §5, §6

[12] = system: H. influenza ATCC 49247; test: as above; assay type: cell-based, Haemophilus influenzae; conditions: HTM broth
Procedure: as §4, §5, §6

[13] = system: M. catarrhalis ATCC 8176; test: as above; assay type: cell-based, Moraxella catarrhalis; conditions: b-lactamase negative, MHB
Procedure: as §4, §5, §6

[14] = In vivo pharmacokinetic and oral bioavailability; conditions: male Swiss mice
Procedure: The in vivo pharmacokinetics and oral bioavailability of the compound of the examples was/is investigated in male Swiss mice (fed) following single intravenous (i.v.) bolus and oral (p.o.) administration. For the i.v. and p.o. solution formulations, the compound was/is dissolved in a 20% HP-β-CD solution. The pH of the formulations was/is around pH 4. All i.v. formulations were isotonic.

O=C1CCc2cc(/C=C/C(=O)N3CCC(c4ccccc4)CC3)cnc2N1 [compound 4]
FabI IC50 [1]: 0.29 µg/mL | STA (361.159) IC90 [2]: 4.99 µg/mL | STA + 10% HS (361.169) IC90 [3]: 4.60 µg/mL | TOX HELAM (222.125) CC50 [4]: >9.079 µg/mL

O=C1CCc2cc(/C=C/C(=O)N3CCC(Cc4ccccn4)CC3)cnc2N1 [compound 35]
FabI IC50 [1]: 0.48 µg/mL | STA (361.159) IC90 [2]: 5.14 µg/mL | STA + 10% HS (361.169) IC90 [3]: 3.94 µg/mL | TOX HELAM (222.125) CC50 [4]: >9.456 µg/mL

O=C1CCc2cc(/C=C/C(=O)N3CCC(Cc4cccs4)CC3)cnc2N1 [compound 37]
FabI IC50 [1]: 0.50 µg/mL | STA (361.159) IC90 [2]: 0.30 µg/mL | STA + 10% HS (361.169) IC90 [3]: 0.36 µg/mL | TOX HELAM (222.125) CC50 [4]: 19.12 µg/mL | MIC90 [5]: 0.125 µg/mL (≈ 0.328 µM) | MIC90 [6]: 0.125 µg/mL (≈ 0.328 µM) | MIC90 [7]: 0.125 µg/mL (≈ 0.328 µM) | MIC90 [8]: 0.125 µg/mL (≈ 0.328 µM) | MIC90 [9]: 0.125 µg/mL (≈ 0.328 µM) | MIC90 [10]: >8 µg/mL | MIC90 [11]: >8 µg/mL | MIC90 [12]: >8 µg/mL | MIC90 [13]: 1 µg/mL (≈ 2.62 µM) | AUC0-inf ([14]; i.v., 2.5 mg/kg): 7464 ng·h/mL | Half life (t1/2) ([14]; i.v., 2.5 mg/kg): 2.7 h | Plasma clearance Cl ([14]; i.v., 2.5 mg/kg): 5.5 mL/min/kg | Vdz ([14]; i.v., 2.5 mg/kg): 1.3 L/kg | C0 ([14]; i.v., 2.5 mg/kg, 20% HP-β-CD solution): 2929 ng/mL | Oral bioavailability ([14]; p.o. 10 mg/kg vs i.v. 2.5 mg/kg): 72% | AUC0-inf ([14]; p.o., 10 mg/kg): 21394 ng·h/mL | Half life (t1/2) ([14]; p.o., 10 mg/kg): 3.2 h | Tmax ([14]; p.o., 10 mg/kg): 2.0 h | Cmax ([14]; p.o., 10 mg/kg, 20% HP-β-CD solution): 2950 ng/mL
